Source: patent publication US20130289083A1, “IDO Inhibitors” (priority 2007, published 2013)
Like-named read-outs stand apart in the source and are kept apart here.

How the values were obtained:
[1] = molecular target: human IDO (Homo sapiens, UniProt P14902); test: Cell based IDO/kynurenine assay in IDO-293-T-Rex cells; settings: kynurenine production, read-out: hIDO EC50
Description: 293-T-REx™ cells (Invitrogen) constitutively express a tet operator binding repressor protein and are maintained in DMEM, 10% FBS, 1× Penicillin+Streptomycin, 2 mM L-glutamine, 5 μg/mL blasticidin at 37° C. with a 5% CO2 in air atmosphere and typically split prior to confluency. Cells were passed by splitting the culture 1/10—by removing media by aspiration, washing 1× with PBS, incubating with 0.25% trypsin/EDTA until the cells detach, disbursing the cells in fresh growth media, and plating at 1/10 dilutions in fresh growth media. For long term cryopreservation, cells are detached from the plate as described above, collected by centrifugation, resuspended in freeze medium (growth medium, 10% DMSO), stored in 1.8 mL cyropreservation vials (˜2−5×10^6 cells per vial), in liquid nitrogen vapor storage tanks.
IDOl-expressing 293-T-Rex™ cell lines were generated by stable transfection of plasmid pcDNA-tetO-IDO expressing human IDO or murine IDO under the control of the doxycycline-inducible CMV-tet promoter. Transfected cells were selected in DBZ medium (DMEM, 10% FBS, 1× Penicillin+Streptomycin, 2 mM L-glutamine, 5 μg/mL blasticidin and 25 μg/ml Zeocin) at 37° C. with a 5% CO2 in air atmosphere. Individual clones were isolated by limiting dilution cloning from these populations.
[…]. The cells incubated in Neutral medium serve as negative control of the assay. The cells incubated in Induction medium and without inhibitor serve as the positive control of the assay. The incubation is carried out for 16 h at 37° C. in a cell culture incubator. 200 μL of medium are transferred to U-bottom polypropylene 96-well plates containing 25 μL of 30% TCA, incubated 30 minutes at 60° C. and centrifuged at 3400 g for 5 minutes. 150 μL of the clear supernatant is transferred to a polystyrene 96-well plate containing 50 μL of 4% (w/v) of p-dimethylaminobenzaldehyde in acetic acid, incubated for 10 min. Kynurenine concentration is determined by measuring the absorbance at 480 nm.
The conditions of the assay were as described in the examples.

[2] = molecular target: purified human IDO protein (Homo sapiens, UniProt P14902); test: Enzymatic IDO assay (kynurenine production, absorbance 480 nm); settings: enzymatic activity
[3] = 293T cell line stably expressing human IDO, values reported in ranges
[4] = hIDO IC50, recombinant human IDO, values reported in ranges
[5] = read-out: hIDO IC50, recombinant human IDO, values reported in ranges
[6] = Table 15, 293T cells expressing human IDO
[7] = hIDO IC50, Table 15, recombinant human IDO

Chain of purified human IDO protein (P14902 whole entry P110S/E119G): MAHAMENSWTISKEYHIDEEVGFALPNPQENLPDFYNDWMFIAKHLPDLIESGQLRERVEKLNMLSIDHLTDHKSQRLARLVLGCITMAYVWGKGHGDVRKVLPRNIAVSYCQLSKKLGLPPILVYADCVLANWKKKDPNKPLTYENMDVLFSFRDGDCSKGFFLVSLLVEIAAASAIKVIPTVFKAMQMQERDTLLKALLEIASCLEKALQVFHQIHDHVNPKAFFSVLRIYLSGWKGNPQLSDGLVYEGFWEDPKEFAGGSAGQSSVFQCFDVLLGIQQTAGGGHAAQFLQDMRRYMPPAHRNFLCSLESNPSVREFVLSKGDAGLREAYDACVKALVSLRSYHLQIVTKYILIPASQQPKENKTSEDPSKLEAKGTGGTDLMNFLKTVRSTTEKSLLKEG
Chain of human IDO (P14902 whole entry): as the sequence (P14902 whole entry P110S/E119G) above, with S110P, G119E counted along it

EC50 [1, 3] [µM] | IC50 [2, 4] [µM] | EC50 [1, 6] [µM] | IC50 [2, 7] [µM] | Structure (SMILES) | IC50 [2, 5] [µM]
20 to 100 | 20 to 100 |  |  | O=C1CSC(=S)N1Cc1ccc2ccccc2c1 [compound 830, 3-(Naphthalen-2-ylmethyl)-2-thioxothiazolidin-4-one] | 
100 to 1000 | 100 to 1000 |  |  | Cn1[nH]c(=O)c(=O)nc1SCc1ccc2ccccc2c1 [compound 682, 2-Methyl-3-(naphthalen-2-ylmethylthio)-1,2-dihydro-1,2,4-triazine-5,6-dione] | 
20 to 100 | < 20 |  |  | O=C1C(O)=C(CC2=C(O)C(=O)c3ccccc3C2=O)C(=O)c2ccccc21 [compound 477] | 
 |  | < 10 | < 10 | COC(=O)c1ccc(-c2ccc(Cl)cc2CON)cc1 [compound 1935, methyl 2′-(aminooxymethyl)-4′-chlorobiphenyl-4-carboxylate] | 
20 to 100 | 100 to 1000 |  |  | Oc1ccccc1C(=S)NCCc1csc2ccccc12 [compound 672, N-(2-(benzo[b]thiophen-3-yl)ethyl)-2-hydroxybenzothioamide] | 
20 to 100 | 100 to 1000 |  |  | Oc1ccccc1C(=S)NCCc1c[nH]c2ccccc12 [compound 644, N-(2-(1H-indol-3-yl)ethyl)-2-hydroxybenzothioamide] | 
20 to 100 | 100 to 1000 |  |  | Oc1ccccc1C(=S)NCc1ccccc1 [compound 656, N-Benzyl-2-hydroxybenzothioamide] | 
1000 to 10000 | 100 to 1000 |  |  | CC(CC(=O)O)c1cccc([N+](=O)[O-])c1 (stereo not shown) [compound 282, 3-(3-nitrophenyl)butanoic acid] | 
100 to 1000 | 100 to 1000 |  |  | Nc1ccccc1NC(=O)CCCc1c[nH]c2ccccc12 [compound 588, N-(2-aminophenyl)-4-(1H-indol-3-yl)butanamide] | 
1000 to 10000 | 20 to 100 |  |  | CC1=C(CN2C(=O)c3ccccc3C2=O)C(=O)c2ccccc2C1=O [compound 464, 2-((3-methyl-1,4-dioxo-1,4-dihydronaphthalen-2-yl)methyl)isoindoline-3-dione] | 
100 to 1000 | 20 to 100 |  |  | Nc1cc(S(=O)O)c2cccnc2c1O [compound 309, 7-amino-8-hydroxyquinoline-5-sulfinic acid] | 
100 to 1000 | 100 to 1000 |  |  | O=C(Cc1csc(=S)[nH]1)NCc1ccc2ccccc2c1 [compound 701, N-(Naphthalen-2-ylmethyl)-2-(2-thioxo-2,3-dihydrothiazol-4-yl)acetamide] | 
 |  | > 1000 | 10 to 100 | NCC(ON)c1ccccc1 (stereo not shown) [compound 1875, 2-(aminooxy)-2-phenylethanamine] | 
1000 to 10000 | < 20 |  |  | O=C1C=C(O)C(=O)c2nc(O)ccc21 [compound 320, 2,7-dihydroxyquinoline-5,8-dione] | 
20 to 100 | 100 to 1000 |  |  | Cc1ccc(C)c(C(C)CC(=O)O)c1 (stereo not shown) [compound 261, 3-(2,5-dimethylphenyl)butanoic acid] | 
< 20 | < 20 |  |  | NC(=O)C(=O)NNc1ccccc1 [compound 312, 2-oxo-2-(2-phenylhydrazinyl)acetamide] | 
 |  | < 10 | < 10 | NOC(COCc1ccccc1)c1ccccc1 (stereo not shown) [compound 1933, O-(2-(benzyloxy)-1-phenylethyl)hydroxylamine] | 
20 to 100 | 100 to 1000 |  |  | O=C(Cc1csc(=S)[nH]1)NCc1c[nH]c2ccccc12 [compound 561, N-((1H-indol-3-yl)methyl)-2-(2-thioxo-2,3-dihydrothiazol-4-yl)acetamide] | 
 |  | < 10 | < 10 | NOCc1cc(Cl)ccc1-c1ccsc1 [compound 1932, O-(5-chloro-2-(thiophen-3-yl)benzyl)hydroxylamine] | 
100 to 1000 | 100 to 1000 |  |  | Oc1ccccc1C(=S)NCCc1ccccc1 [compound 634, 2-Hydroxy-N-phenethylbenzothioamide] | 
20 to 100 | 100 to 1000 |  |  | Cc1c(O)c(=O)ccn1CCc1c[nH]c2ccccc12 [compound 552, 1-(2-(1H-indol-3-yl)ethyl)-3-hydroxy-2-methylpyridin-4(1H)-one] | 

Continued, compound first:

Structure (SMILES) | EC50 [1, 3] [µM] | IC50 [2, 4] [µM] | EC50 [1, 6] [µM] | IC50 [2, 7] [µM] | IC50 [2, 5] [µM]
CSC(=S)NCCc1c[nH]c2ccc([N+](=O)[O-])cc12 [compound 40] | 100 to 1000 |  |  |  | 100 to 1000
O=C1C=Cc2ccccc2C1=O [compound 167, naphthalene-1,2-dione] | 20 to 100 | < 20 |  |  | 
CN(C)c1ccc(/C=C2\CSC(=S)NC2=O)cc1 [compound 150, (Z)-5-(4-(dimethylamino)benzylidene)-2-thioxo-1,3-thiazinan-4-one] | 100 to 1000 | 100 to 1000 |  |  | 
S=C(NCCc1c[nH]c2ccccc12)SCc1cc2c(cc1Br)OCO2 [compound 65, (6-Bromobenzo[d][1,3]dioxol-5-yl)methyl 2-(1H-indol-3-yl)ethylcarbamodithioate] | 20 to 100 | 20 to 100 |  |  | 
Cc1ccc(SC(=S)Nc2ccccc2)cc1 [compound 142, p-tolyl phenylcarbamodithioate] | 100 to 1000 | < 20 |  |  | 
S=C(NCCc1c[nH]c2ccccc12)SCc1ccc2c(c1)OCO2 [compound 50, Benzo[d][1,3]dioxol-5-ylmethyl 2-(1H-indol-3-yl)ethylcarbamodithioate] | 20 to 100 | 20 to 100 |  |  | 
Fc1ccc(CCSC(=S)NCCc2c[nH]c3ccccc23)cc1 [compound 3, 4-Fluorophenethyl 2-(1H-indol-3-yl)ethylcarbamodithioate] | 100 to 1000 | 100 to 1000 |  |  | 
Nc1ccc2[nH]cc(CCC(=O)O)c2c1 [compound 325, 3-(5-amino-1H-indol-3-yl)propanoic acid] | 1000 to 10000 | 100 to 1000 |  |  | 
S=C(NCCc1c[nH]c2ccccc12)SCCc1ccc(Br)cc1 [compound 4, 4-Bromophenethyl 2-(1H-indol-3-yl)ethylcarbamodithioate] | 20 to 100 | 100 to 1000 |  |  | 
CSC(=S)NCCCCCCc1c[nH]c2ccccc12 [compound 27, Methyl 6-(1H-indol-3-yl)hexylcarbamodithioate] | 100 to 1000 | 100 to 1000 |  |  | 
Cc1cc2ccccc2cc1CCSC(=S)NCCc1c[nH]c2ccccc12 [compound 47, 2-(3-methylnaphthalen-2-yl)ethyl 2-(1H-indol-3-yl)ethylcarbamodithioate] | 20 to 100 | 100 to 1000 |  |  | 
O=C1NC(=S)S/C1=C\c1ccc2c(c1)OCO2 [compound 148, (Z)-5-(benzo[d][1,3]dioxol-5-ylmethylene)-2-thioxothiazolidin-4-one] | 100 to 1000 | 100 to 1000 |  |  | 
Cc1ccc2cc(CSC(=S)NCCc3c[nH]c4ccccc34)ccc2n1 [compound 38, (2-Methylquinolin-6-yl)methyl 2-(1H-indol-3-yl)ethylcarbamodithioate] | 20 to 100 | 100 to 1000 |  |  | 
S=C1NC(c2ccccc2)NC(c2ccccc2)S1 (stereo not shown) [compound 152, 4,6-diphenyl-1,3,5-thiadiazinane-2-thione] | 20 to 100 | 20 to 100 |  |  | 
S=C(NCCC1CCc2ccccc2O1)SCc1ccc2ccccc2c1 (stereo not shown) [compound 63, naphthalen-2-ylmethyl 2-(chroman-2-yl)ethylcarbamodithioate] | 20 to 100 | 20 to 100 |  |  | 
NC(CSC(=S)NCCCc1ccccc1)C(=O)O (stereo not shown) [compound 140, 2-amino-3-(3-phenylpropyl-carbamo-thioylthio)propanoic acid] | 20 to 100 | 100 to 1000 |  |  | 
S=C(NCCc1csc2ccccc12)SCc1ccc2ccccc2c1 [compound 60] | 20 to 100 |  |  |  | 20 to 100
Fc1ccccc1CCSC(=S)NCCc1c[nH]c2ccccc12 [compound 12, 2-fluorophenethyl 2-(1H-indol-3-yl)ethylcarbamodithioate] | 100 to 1000 | 100 to 1000 |  |  | 
CC(CSC(=S)NCCc1c[nH]c2ccccc12)c1ccccc1 (stereo not shown) [compound 6, 2-Phenylpropyl 2-(1H-indol-3-yl)ethylcarbamodithioate] | 100 to 1000 | 100 to 1000 |  |  | 
CSC(=S)NCCc1c[nH]c2ccc(Cl)cc12 [compound 32] | 20 to 100 |  |  |  | 100 to 1000
S=C(NCCc1c[nH]c2ccccc12)SCCc1ccccc1Cl [compound 21, 2-Chlorophenethyl 2-(1H-indol-3-yl)ethylcarbamodithioate] | 100 to 1000 | 100 to 1000 |  |  | 
S=C(NCCc1noc2ccccc12)SCc1ccc2ccccc2c1 [compound 58] | 20 to 100 |  |  |  | 100 to 1000
CSC(=S)NCCc1c[nH]c2c(Cl)cc(Cl)cc12 [compound 42] | 100 to 1000 |  |  |  | 100 to 1000
